Measured values from ChEMBL document CHEMBL1140817, “Synthesis and anti-HIV activity of 2'-fluorine modified nucleoside phosphonates: analogs of GS-9148” (Bioorg Med Chem Lett, 2008).

What was measured:
[1] = tested on: Human immunodeficiency virus 1; test: Antiviral activity against HIV1 3B in MT2 cells; assay type: functional, organism-based; conditions: Human immunodeficiency virus 1, 3B
[2] = Cytotoxicity against human MT2 cells; assay type: cell-based

| SMILES | EC50 [1] [µM] | CC50 [2] [mM] |
| --- | --- | --- |
| Nc1ncnc2c1ncn2[C@@H]1O[C@H](OCP(=O)(O)O)C[C@@H]1F | 283 | > 1 |
| Nc1nc2c(ncn2[C@@H]2O[C@H](OCP(=O)(O)O)C=C2F)c(=O)[nH]1 | 17.4 | 0.7 |
| Nc1nc(N)c2ncn([C@@H]3O[C@H](OCP(=O)(O)O)C=C3F)c2n1 | > 300 | – |
| O=c1[nH]cnc2c1ncn2[C@@H]1O[C@H](OCP(=O)(O)O)C=C1F | > 300 | – |
| Nc1ncnc2c1ncn2[C@@H]1O[C@H](OCP(=O)(O)O)C=C1F [GS-9148] | 12.3 | > 1 |
| C[C@H](Cn1cnc2c(N)ncnc21)OCP(=O)(O)O [TENOFOVIR ANHYDROUS] | 3.6 | > 1 |
